Assay results: patent US11135224B2, “Methods of sensitizing estrogen receptor positive (ER+) breast cancer cells to endocrine therapy” (New York University, priority 2018, dated 2021)

How the values were obtained:
Type in all cases: cell-based, human
[1] = system: TamR cells (MCF7 LCC9); assay: Colony survival assay, TamR cells
Protocol: (§1) Cells were fixed in 70% ethanol overnight. Cells were subjected to RNaseA treatment and stained with propidium iodide (PI). Data was collected using FACScalibur and analyzed with FloJo 10.0 software. Data from 3 independent experiments are shown. SEMs are shown. **P<0.01 and ***P<0.001 by two-way ANOVA. […] TamS and TamR cells were treated with either DMSO or 1 μM 4-OH Tam and initiated on day 0. Results are representative of 3 independent experiments and presented as relative proliferation in which all samples are normalized to Day 0. Standard deviations are shown. *P<0.05 by t-test. […] Cells were treated with either DMSO or 1 μM 4-HT 24 hours after plating. Colonies scored after 10 days counting only ≥50 cells/colony. Results are representative of 3 independent experiments. SEMs are shown. ***P<0.001 by two-way ANOVA. […] Equal amounts of RNA were reverse transcribed and quantified through real-time PCR. RNA levels normalized to GAPDH using the ^−ΔΔCt method. Error bars represent SEM. […] RNA levels normalized to GAPDH using the ^−ΔΔCt method. Error bars represent SEM.
Cells were lysed in NP-40 buffer and probed for key translation factors. β-tubulin (loading control). […] Cells were treated with either DMSO or 1 μM 4-OH Tam 24 hours after plating. Dox (1 μg/mL) was administered 24 hours after plating and removed after 72 hours. Colonies scored after 10 days counting only ≥50 cells/colony. SEM is shown. […] Cells were treated with either DMSO control or 1 μM 4-OH Tam for 72 hours in 1% CS-FBS. Dox (1 μg/mL) was administered to cells for 72 hours. […] Data was collected using LSRII UV and analyzed with FloJo software. […] Data was collected using FACScalibur and analyzed with FloJo 10.0 software. […] Data was collected using FACScalibur and analyzed with FloJo 10.0 software. […] Colonies scored after 10 days counting only ≥50 cells/colony. […]
Hsp70 (loading control). […] Colonies were scored after 10 days counting only >50 cells/colony. […] Equal amounts of RNA were resolved by sucrose gradient centrifugation and ribosome profiles monitored by UV absorbance 254 nm. […]

[2] = system: TamR cells (MCF7 LCC9); assay: Cell cycle analysis, TamR cells; conditions: 20 nM RAD001 plus 1 μM 4-OH Tam, 72 hours
Protocol: Cells were lysed in NP-40 buffer and probed for key translation factors. β-tubulin (loading control). […] Cells were treated with either DMSO or 1 μM 4-OH Tam 24 hours after plating. Dox (1 μg/mL) was administered 24 hours after plating and removed after 72 hours. Colonies scored after 10 days counting only ≥50 cells/colony. SEM is shown. […] Cells were treated with either DMSO control or 1 μM 4-OH Tam for 72 hours in 1% CS-FBS. Dox (1 μg/mL) was administered to cells for 72 hours. Cells were fixed in 70% ethanol overnight and subjected to RNaseA treatment. Cells were stained with Hoechst 33342. Data was collected using LSRII UV and analyzed with FloJo software. Data from 3 independent experiments are shown. SEM is shown. *P<0.05 by two-way ANOVA. […] Cap chromatography performed on TamR cells with or without 4E-BP1 cDNA overexpression. Cells were lysed in NP-40 buffer and pulldown was performed for 1 hour at 4° C. Proteins were eluted and resolved via SDS-PAGE. […] Data was collected using FACScalibur and analyzed with FloJo 10.0 software. […] Data was collected using FACScalibur and analyzed with FloJo 10.0 software. […] Colonies scored after 10 days counting only ≥50 cells/colony. […]
(§2) Cell Cycle Analysis: Cells were trypsinized, filtered, and counted using an automated cell counter (Bio-Rad). […] Data were collected using a FACScalibur or LSRII UV and analyzed with FlowJo 10.0.

[3] = system: TamR cells (MCF7 LCC9); assay: Cell proliferation assay (MTT), TamR cells; conditions: 1 μM 4-OH Tam
Protocol: as §1
Endogenous eIF4E was silenced by shRNA. […]
Cell Proliferation Assay: Cell proliferation was measured using the CellTiter 96 nonradioactive cell proliferation assay kit (Promega) according to the manufacturer's instructions. […] Absorbance was measured at 570 nm. […]

[4] = system: canonical ER signaling in BR7 cells; assay: ER signaling mRNA expression (c-Myc, EEIG1) by real-time PCR, BR7 (PDX) cells; conditions: Tam for 24 hours
Protocol: as §1
(§3) Quantitative Real-Time PCR (RT-qPCR) and Analysis: RNA was extracted using Trizol as per the manufacturer's instructions. […] Fold change was calculated using the 2^−ΔΔCt method.

[5] = system: BR7 (PDX) cells; assay: Cell cycle analysis, BR7 (PDX) cells; conditions: 1 μM 4-OH Tam
Protocol: as §1, §2

[6] = system: canonical ER signaling in TamR cells; assay: ER signaling mRNA expression (c-Myc, EEIG1) by real-time PCR, TamR cells; conditions: Tam for 24 hours
Protocol: as §1, §3

[7] = system: TamS cells (MCF7 LCC1); assay: Cell cycle analysis, TamS cells with or without eIF4E overexpression; conditions: 1 μM 4-OHT for 72 h, regardless of eIF4E overexpression
Protocol: Dox (2 μg/mL) was added 72 hours prior to lysis in NP-40 buffer. Equal protein amounts were immunoblotted as shown. β-Actin was used as a loading control. […] Dox (2 μg/mL) was added for 72 hours. Cells were subjected to exhaustive RNase A and stained with propidium iodide (PI). Flow cytometry data were collected using a FACScalibur and analyzed with FloJo software. The average of three studies is shown. […] Cells were treated with 2 μg/mL Dox for 72 hours and lysed in NP-40 buffer. Equal protein amounts were immunoblotted. β-Actin was used as a loading control. Representative results are shown. […] TamS sh-control, eIF4E-overexpressing, shTSC2, and shTSC2 and eIF4E-overexpressing cells were treated with either DMSO or 1 μM 4-OHT. (**)P<0.01; (***)P<0.0001 by two-way ANOVA. […] Results are the average of three independent studies.
Cell Cycle Analysis: Cells were trypsinized, filtered, and counted using an automated cell counter (Bio-Rad). Cells (7×10^5) were seeded on 10-cm culture plates in IMEM (Corning) with 5% FBS (Gibco) and 0.4% gentamicin sulfate (Lonza) and allowed to adhere overnight. The medium was changed to IMEM (Corning) with 1% charcoal-stripped FBS (HyClone) and 0.4% gentamicin sulfate for 48 hours. Cells were treated with the appropriate drug for 72 hours and with fresh drug after 48 hours. […] Data were collected using a FACScalibur or LSRII UV and analyzed with FlowJo 10.0.

Row | Structure (SMILES) | resensitization to tamoxifen: survival ([1]; 20 nM RAD001 plus 1 μM 4-OH Tam, 10 days) | cell survival on cotreatment ([1]; RAD001 added to 1 μM 4-OHT plus 10 μM CGP57380) | resensitization to tamoxifen: cell proliferation [2] | survival under tamoxifen ([1]; 1 μM 4-OH Tam, 10 days) | proliferation under tamoxifen [3] | tamoxifen-induced repression of canonical ER signaling [4] | cell cycle distribution under tamoxifen [5] | tamoxifen-induced repression of canonical ER signaling [6] | proliferation in the presence of tamoxifen [7]
1 | CO[C@H]1C[C@@H]2CC[C@@H](C)[C@@](O)(O2)C(=O)C(=O)N2CCCC[C@H]2C(=O)O[C@H]([C@H](C)C[C@@H]2CC[C@@H](OCCO)[C@H](OC)C2)CC(=O)[C@H](C)/C=C(\C)[C@@H](O)[C@@H](OC)C(=O)[C@H](C)C[C@H](C)/C=C/C=C/C=C/1C [RAD001, Everolimus] | decreased survival | further additive reduction in cell survival | restoration of inhibition of cell proliferation |  |  |  |  |  | 
2 | CC/C(=C(\c1ccccc1)c1ccc(OCCN(C)C)cc1)c1ccccc1 [tamoxifen] |  |  |  | maintain normal proliferation and survival | maintain normal proliferation and survival | insensitive | normal cell cycle distribution | insensitive | unable to proliferate
